# Entries after “also recorded” stand apart in the source; their conditions may differ.
# Assays:
# [1] = tested on: human patients with mild to moderate Alzheimer's disease; assay: Vital signs and lab results in clinical trial; assay type: in vivo; conditions: 18 month trial
# Experimental: (§1) A clinical trial was carried out to determine whether chronic DHA supplementation slows the progression of cognitive and functional decline in human patients with mild to moderate Alzheimer's disease.
# (§2) In the study, 402 individuals with mild to moderate Alzheimer's disease participated for 18 months at sites throughout the United States. Participants were randomized so that 60% of participants received approximately 2 grams of DHA (divided into 4 capsules—2 capsules taken twice a day), while 40% of the participants received an identical placebo of corn/soy oil. The DHA soft-gel capsules used in the study were provided by Martek Biosciences Corporation, and contained a microbial oil of 55% DHA (as a percentage of total fatty acids) in triglyceride form, in addition to tocopherol and orange flavoring. The capsules contained no detectable EPA. The placebo was a 50/50 mixture of corn/soy oil and also included mixed tocopherols, ascorbyl, palmitate, orange flavoring, and orange masking agent.
# (§3) Various parameters were measured at baseline and at every 6 months through the conclusion of the trial at 18 months.
# [2] = tested on: human patients with mild to moderate Alzheimer's disease; assay: Pre-planned secondary analysis of DHA treatment and ApoE4 allelic status, all outcome measures; assay type: in vivo
# Experimental: as §1, §2
# A pre-planned secondary analysis was also carried out examining the effect of DHA treatment and ApoE4 (E4) allelic status. […] This effect was also evident on the MMSE (−3.36±4.78 in DHA compared to 5.12±5.08 in placebo; p=0.034), but was not present on the CDR-SOB, the ADCS-ADL, or the NPI.
# [3] = tested on: human patients with mild to moderate Alzheimer's disease; assay: MRI sub-study, brain volume change; assay type: in vivo
# Experimental: as §2, with “A clinical trial was carried out to determine whether chronic DHA supplementation slows the progression of cognitive and functional decline in human patients with mild to moderate Alzheimer's disease. In” for “In”
# [4] = Plasma phospholipid DHA levels in clinical trial; assay type: in vivo, human; conditions: DHA treatment group
# Description: as §2, §3
# (§4) Plasma phospholipid fatty acid levels were determined using established methods, with modifications for cerebrospinal fluid analysis (Arterburn et al., 2007, Lipids 42(11):1011-1024; Arterburn et al., 2008, J Am Diet Assoc. 108(7):1204-1209). The fatty acid profiles were expressed as a percent of the total μg of fatty acid (weight percent).
# [5] = tested on: human patients with mild to moderate Alzheimer's disease; assay: ADAS-cog (co-primary outcome) in clinical trial; assay type: in vivo
# Experimental: as §2, with “A clinical trial was carried out to determine whether chronic DHA supplementation slows the progression of cognitive and functional decline in human patients with mild to moderate Alzheimer's disease. In” for “In”, “agent. Following the eligibility assessment, 238 of the 402 patients were randomly assigned to the DHA treatment group and 164 patients to the placebo group. Of the 238 patient DHA treatment group, 171 patients completed the full 18 month course of treatment. Of the 164 placebo group, 124 patients completed the full 18 month course of treatment. Various parameters were measured at baseline and at every 6 months through the conclusion of the trial at 18 months.” for “agent.”
# [6] = tested on: human patients with mild to moderate Alzheimer's disease; assay: ADCS-ADL (secondary outcome) in clinical trial; assay type: in vivo
# Experimental: as §2, with “A clinical trial was carried out to determine whether chronic DHA supplementation slows the progression of cognitive and functional decline in human patients with mild to moderate Alzheimer's disease. In” for “In”, “agent. Following the eligibility assessment, 238 of the 402 patients were randomly assigned to the DHA treatment group and 164 patients to the placebo group. Of the 238 patient DHA treatment group, 171 patients completed the full 18 month course of treatment. Of the 164 placebo group, 124 patients completed the full 18 month course of treatment. Various parameters were measured at baseline and at every 6 months through the conclusion of the trial at 18 months.” for “agent.”
# [7] = Cerebrospinal fluid (CSF) DHA levels in CSF sub-study; assay type: in vivo, human
# Experimental: All subjects without contraindication to cerebrospinal fluid (CSF) exam (e.g., anticoagulation) were invited to participate in the CSF study. In these subjects, lumbar puncture was performed in the morning after an overnight fast.
# as §4
# [8] = tested on: human patients with mild to moderate Alzheimer's disease; assay: MMSE (secondary outcome) in clinical trial; assay type: in vivo
# Experimental: as §2, with “A clinical trial was carried out to determine whether chronic DHA supplementation slows the progression of cognitive and functional decline in human patients with mild to moderate Alzheimer's disease. In” for “In”, “agent. Following the eligibility assessment, 238 of the 402 patients were randomly assigned to the DHA treatment group and 164 patients to the placebo group. Of the 238 patient DHA treatment group, 171 patients completed the full 18 month course of treatment. Of the 164 placebo group, 124 patients completed the full 18 month course of treatment. Various parameters were measured at baseline and at every 6 months through the conclusion of the trial at 18 months.” for “agent.”
# [9] = tested on: human patients with mild to moderate Alzheimer's disease; assay: NPI (secondary outcome) in clinical trial; assay type: in vivo
# Experimental: as §2, with “A clinical trial was carried out to determine whether chronic DHA supplementation slows the progression of cognitive and functional decline in human patients with mild to moderate Alzheimer's disease. In” for “In”, “agent. Following the eligibility assessment, 238 of the 402 patients were randomly assigned to the DHA treatment group and 164 patients to the placebo group. Of the 238 patient DHA treatment group, 171 patients completed the full 18 month course of treatment. Of the 164 placebo group, 124 patients completed the full 18 month course of treatment. Various parameters were measured at baseline and at every 6 months through the conclusion of the trial at 18 months.” for “agent.”
# [10] = tested on: human patients with mild to moderate Alzheimer's disease; assay: CDR-SOB (co-primary outcome) in clinical trial; assay type: in vivo
# Experimental: as §2, with “A clinical trial was carried out to determine whether chronic DHA supplementation slows the progression of cognitive and functional decline in human patients with mild to moderate Alzheimer's disease. In” for “In”, “agent. Following the eligibility assessment, 238 of the 402 patients were randomly assigned to the DHA treatment group and 164 patients to the placebo group. Of the 238 patient DHA treatment group, 171 patients completed the full 18 month course of treatment. Of the 164 placebo group, 124 patients completed the full 18 month course of treatment. Various parameters were measured at baseline and at every 6 months through the conclusion of the trial at 18 months.” for “agent.”
# [11] = all subjects, LME model, GEE or ANCOVA
smiles,measurement,setting,value
"CC/C=C\C/C=C\C/C=C\C/C=C\C/C=C\C/C=C\CCC(=O)O [DHA, (all-Z)-4,7,10,13,16,19-docosahexaenoic acid]",Cholesterol level change,[1],modest increase
same,Diastolic blood pressure change,[1],modest decline
same,HDL level change,[1],no change
same,Heart rate change,[1],modest decline
same,LDL level change,[1],modest increase
same,Systolic blood pressure change,[1],no change
same,Triglycerides change,[1],modest decline
same,Weight change,[1],no change
same,Benefit in reducing decline in cognitive ability in AD subjects negative for the ApoE4 allele,[2]; ApoE4-negative subjects afflicted with AD,significant benefit
same,DHA treatment effect on any outcome measure in the E4-positive group,[2]; ApoE4-positive subjects,no DHA treatment effect
same,"Absolute volume change over 18 months, total ventricular volume","[3]; MRI sub-study n=53 DHA, placebo 8.1±5.9, p=0.55",9.1±5.0 cm^3
same,"Absolute volume change over 18 months, total brain","[3]; MRI sub-study n=53 DHA, placebo 24.0±14.6, p=0.79",24.7±12.3 cm^3
same,"Absolute volume change over 18 months, right hippocampus","[3]; MRI sub-study n=53 DHA, placebo 148±109, p=0.29",176±128 mm^3
same,"Absolute volume change over 18 months, left hippocampus","[3]; MRI sub-study n=53 DHA, placebo 175±135, p=0.17",141±104 mm^3
same,Effect of DHA treatment on absolute amount of brain volume change over 18 months,"[3]; MRI sub-study, ANCOVA, total brain, hippocampus, total ventricular volume",no evidence of an effect
same,Effect of DHA on rates of brain atrophy among ApoE4 negative subjects,"[3]; MRI sub-study, n=21 DHA, n=17 placebo",Neither was an effect of DHA seen
same,Plasma phospholipid DHA,"[4]; approx. 2 g DHA/day oral, 6 months",9.1 wt %
same,Plasma phospholipid DHA,"[4]; approx. 2 g DHA/day oral, 12 months",10.23 wt %
same,Plasma phospholipid DHA,"[4]; approx. 2 g DHA/day oral, 18 months, p<0.001",9.77 wt %
same,Plasma phospholipid DHA,[4]; baseline (before treatment),3.18 wt %
same,"ADAS-cog points change over 18 months, E4-negative group","[5]; ApoE4-negative, 61 DHA subjects, placebo 10.11±10.58 (48 subjects), p=0.028",6.23±8.58 points
same,Difference DHA vs placebo in 12 month ADAS scores,"[5]; Wilcoxan rank p=0.027, FIG. 1",modest difference
same,Difference DHA vs placebo on ADAS-cog (rate of change),"[5]; all subjects, LME model, 18 months",did not differ; also recorded: no significant difference
same,ADAS-cog points change over 18 months,"[5]; all subjects, unadjusted, placebo 7.98±9.84, p=0.41",8.27±8.9 points
same,ADAS-cog decline in ApoE4 negative subjects with MMSE >21 compared to MMSE ≦21,"[5]; post hoc analysis, FIGS. 7A and 7B",significantly less decline; also recorded: more pronounced
same,Difference in the effect of DHA administration on ADAS-cog between ApoE4-positive and ApoE4-negative subjects,"[5]; pre-specified sub-group analysis, FIGS. 6A and 6B",statistically significant difference
same,DHA treatment effect on ADCS-ADL in the E4-negative group,[6]; ApoE4-negative subjects,not present
same,ADCS-ADL points change over 18 months (rate of decline),"[6]; all subjects, LME analysis, placebo 10.43±11.74, p=0.38",11.51±13.23 points
same,Difference DHA vs placebo on ADCS-ADL,[6]; [11],no significant difference
same,CSF DHA,"[7]; DHA supplemented group n=29, 18 months, p<0.001",3.45 wt %
same,CSF DHA,"[7]; DHA supplemented group n=29, baseline (before treatment)",2.53 wt %
same,"MMSE change, E4-negative group","[8]; ApoE4-negative, placebo printed 5.12±5.08, p=0.034",−3.36±4.78
same,MMSE points change from baseline to 18 months,"[8]; all subjects, ANCOVA, placebo −4.0±4.7, p=0.88",−3.70±4.95 points
same,Difference DHA vs placebo on MMSE,"[8]; all subjects, after 18 months of treatment",no significant difference
same,DHA treatment effect on NPI in the E4-negative group,[9]; ApoE4-negative subjects,not present
same,NPI points change over 18 months,"[9]; all subjects, LME analysis, placebo 5.09±15.08, p=0.11",2.93±13.62 points
same,Difference DHA vs placebo on NPI,[9]; [11],no significant difference
same,DHA treatment effect on CDR-SOB in the E4-negative group,[10]; ApoE4-negative subjects,not present
same,Difference DHA vs placebo on CDR-SOB (rate of change),"[10]; all subjects, LME model, GEE or ANCOVA, ITT or per protocol",also did not differ; also recorded: no significant difference
same,CDR-SOB points change over 18 months,"[10]; all subjects, placebo 2.87±2.93, p=0.68",2.93±2.83 points
